Assay results reported in PMC4792926, “G9a-mediated methylation of ERα links the PHF20/MOF histone acetyltransferase complex to hormonal gene expression” (Nature Communications, 2016).

B1: DBD and hinge fragment: recombinant ERα fragment DBD+hinge (aa 175–310) (protein, UniProt P03372 175-310, looked up, fragment)
chain: AMESAKETRYCAVCNDYASGYHYGVWSCEGCKAFFKRSIQGHNDYMCPATNQCTIDKNRRKSCQACRLRKCYEVGMMKGGIRKDRRGGRMLKHKRQRDDGEGRGEVGSAGDMRAANLWPSPLMIKRSKKNSLALSL
B2: AF-1: recombinant ERα N-terminal activation function domain (aa 1–190) (protein, UniProt P03372 1-190, looked up, fragment)
chain: MTMTLHTKASGMALLHQIQGNELEPLNRPQLKIPLERPLGEVYLDSSKPAVYNYPEGAAYEFNAAAAANAQVYGQTGLPYGPGSEAAAFGSNGLGGFPPLNSVSPSPLMLLHPPPQLSPFLQPHGQQVPYYLENEPSGYTVREAGPPAFYRPNSDNRRQGGRERLASTNDKGSMAMESAKETRYCAVCND
B3: DBD: recombinant ERα DNA-binding domain (aa 175–250) (protein, UniProt P03372 175-250, looked up, fragment)
chain: AMESAKETRYCAVCNDYASGYHYGVWSCEGCKAFFKRSIQGHNDYMCPATNQCTIDKNRRKSCQACRLRKCYEVGM

Assays:
PHF20 Tudor = test: 1H,15N HSQC NMR titration of PHF20 Tudor; type: binding, human; conditions: 0.2 mM 15N-labelled PHF20 Tudor, 25 mM Tris-HCl pH 7.5, 150 mM NaCl, 298 K, 600 MHz
Description: (§1) The pGEX constructs encoding human G9a, ERα and ERα fragments including AF1 (aa 1–190), DBD (aa 175–250), hinge (aa 251–310), DBD+hinge (aa 175–310), LBD (aa 305–596) and the second Tudor domain of PHF20 (aa 58–148) were expressed in E. coli Rosetta (DE3) pLysS cells. After induction with IPTG (0.5 mM) for 16–18 h at 18 °C, cells were collected by centrifugation at 5,000g, lysed by sonication and purified using Glutathione Sepharose 4B beads (GE Healthcare). For the NMR titration assays, PHF20 Tudor was expressed in the ^15NH4Cl-supplemented (Sigma) minimal media, and the GST tag was cleaved with PreScission protease, and the cleaved protein was concentrated using Millipore concentrators (Millipore).
The ^1H,^15N HSQC spectra of 0.2 mM uniformly ^15N-labelled PHF20 Tudor (in 25 mM Tris-HCl, pH 7.5 buffer, 150 mM NaCl, 5 mM dithiothreitol and ∼8% D2O) were collected at 298 K on a Varian INOVA 600 MHz spectrometer. Binding was monitored by titrating unmodified ERα and ERαK235me2 peptides (aa 228–239) against the PHF20 Tudor domain. NMR data were processed and analysed with NMRPipe and NMRDraw as previously described. NMR assignments for PHF20 Tudor were taken from the Biological Magnetic Resonance Data Bank (BMRB 17673)[31].

G9a [1] = test: In vitro methylation of ERα peptides by G9a, mass spectrometry; type: biochemical, human; conditions: 1 μg peptide, pH 8.0, 30 °C, 4 h
G9a [2] = test: In vitro methylation of ERα protein fragments by G9a; type: biochemical, human; conditions: 2 μg G9a, 2 μg substrate, 3H-S-adenosylmethionine, pH 8.0, 30 °C, 4 h; autoradiography
Source text: Complementary DNA encoding full-length human ERα, G9a, PHF20 and NCOA2 genes were cloned into pENTR3C and subsequently cloned into destination vectors using the Gateway technique (Invitrogen). The destination vectors used in this study include p3Flag and pCAG-Flag (for Flag-tag expression), pCAG-Myc (for Myc-tag expression) and pCAG (for no-tag expression). pERE-Luc Firefly luciferase and pRl-TK Renilla luciferase were used for the reporter assays. For in vitro enzymatic assays, G9a, ERα, ERα fragments and mutants were cloned into pGEX-6P1 (GE Healthcare) to express and purify the proteins as GST-tagged proteins. Point mutations were generated using site-directed mutagenesis (Stratagene). shRNA constructs were purchased from Sigma. The G9a-targeting shRNA sequences used in this study were 5′-[…]-3′, 5′-[…]-3′ and 5′-[…]-3′ and the PHF20-targeting shRNA sequences were 5′-[…]-3′ and 5′-[…]-3′. Peptides were synthesized at the W.M. Keck Facility at Yale University or at CPC-Scientific. Polyclonal anti-dimethylated ERαK235 rabbit sera (CPC Scientific, 1:500) were affinity-purified with an ERαK235me2 peptide and depleted against the corresponding unmethylated peptide. Anti-G9a antibodies were purchased from MBL (D141-3, 1:1,000) and Sigma (G6919, 1:2,000); anti-PHF20 (3934S, 1:1,000) antibody from Cell Signaling; anti-ERα (Sc-503, 1:1,000) and anti-GST (Sc-459, 1:1,000) antibodies from Santa Cruz; anti-FLAG (F-1804, 1:5,000) and anti-tubulin (T8328, 1:5,000) antibodies from Sigma; anti-H4K16ac (07–329, 1:1,000) antibody from Millipore; anti-total H3 (ab1791, 1:5,000) and anti-H3K9me2 (ab1220, 1:1,000) antibodies from Abcam; and streptavidin horseradish peroxidase from Thermo Scientific. 17β-estradiol and the G9a inhibitor BIX-01294 were purchased from Sigma.
as §1, with “For the NMR titration assays, PHF20 Tudor was expressed in the ^15NH4Cl-supplemented (Sigma) minimal media, and the GST tag was cleaved with PreScission protease, and the cleaved protein was concentrated using Millipore concentrators (Millipore).” left out
Recombinant G9a (2 μg) was incubated with recombinant ERα fragments proteins (2 μg) in methylation assay buffer (50 mM Tris-HCl, pH 8.0, 10% glycerol, 20 mM KCl, 5 mM MgCl2, 1 mM DTT, 1 mM PMSF and 0.1 mM unlabelled or ^3H-labelled S-adenosylmethionine (GE Healthcare)) at 30 °C for 4 h. Reactions were stopped by adding SDS–PAGE sample buffer, and the methylation status was determined by autoradiography or western blotting analysis. […]

| Molecule | methylation by G9a (G9a [2]) | further results |
| --- | --- | --- |
| unmethylated ERα (aa 228–239) peptide: unmodified ERα peptide (aa 228–239) (TIDKNRRKSCQA) | – | chemical shift changes of PHF20 Tudor (PHF20 Tudor): no resonance perturbations were observed |
| ERα peptide containing K235: ERα peptide spanning amino acids 227–244, G9a substrate (CTIDKNRRKSCQACRLRK; UniProt P03372 227-244, looked up, fragment) | – | increase in mass on G9a methylation (G9a [1]): 28 Da |
| peptide containing K303: ERα peptide spanning amino acids 294–313, G9a substrate (SPLMIKRSKKNSLALSLTAD; UniProt P03372 294-313, looked up, fragment) | – | increase in mass on G9a methylation (G9a [1]): 14 Da |
| hinge region: recombinant ERα hinge fragment (aa 251–310) (MKGGIRKDRRGGRMLKHKRQRDDGEGRGEVGSAGDMRAANLWPSPLMIKRSKKNSLALSL; UniProt P03372 251-310, looked up, fragment) | methylated both the DBD and the hinge region | – |
| B1 | specifically methylated | – |
| B2 | not the AF-1 and LBD fragments | – |
| B3 | methylated both the DBD and the hinge region | – |
